Measured values reported in patent publication US9549946B2, “Materials and methods for preventing and treating microbe-mediated epithelial disorders” (priority 2002, dated 2017).

Tested on: human intestinal epithelial cells
Experiment: Epithelial transport function (Na+/H+ exchange, glucose transport)
Assay type: cell-based
Source text: The resistance of PEG-cultured human intestinal epithelial cells to the barrier-disrupting effects of P. aeruginosa, as judged by the maintenance of TEER, offers a practical approach to stabilizing tight junctional barrier function in the face of a challenge from invading pathogens. Further evidence of the therapeutic value of PEG 15-20 is that epithelial transport function (Na^+/H^+ exchange, glucose transport) is unaffected by this compound.

polyethylene glycol [PEG 15-20]
epithelial transport function (Na+/H+ exchange, glucose transport): unaffected
